Measured values taken from patent US6896883B2 (priority 1997, dated 2005).

Test system: F. graminearum
Type: in vivo
Settings: wheat seeds in F. graminearum-infested soil, 7 days after planting

c1ccc2[nH]c(-c3cscn3)nc2c1 [Thiabendazole, thiabendazole]
% Germination: 80 a %
